From patent US9321751B2, “Piperine derivatives and uses thereof” (INDUSTRY-ACADEMIC COOPERATION FOUNDATION, YONSEI UNIVERSITY, priority 2012, dated 2016)

How the values were obtained:
[1] = test system: 3T3-L1 cells as preadipocytes; test: Inhibition of adipocyte differentiation, Oil-Red O staining; type: cell-based, Mouse; conditions: treated every other day from day 0 of differentiation, 14 days culture, different concentrations
Procedure: Mouse adipocyte line (3T3-L1) was used to evaluate effects of various piperine-based compounds on adipocyte differentiation and growth. 3T3-L1 cells as preadipocytes were dispensed on a 12-well plate, and cultured in a 5% CO2 incubator using DMEM medium supplemented with 1% penicillin-streptomycin, 1% non-essential amino acids, and 10% FBS. The cultured 3T3-L1 cells were made into differentiated adipocytes by being cultured for […] in a medium containing 0.5 mM […], 1 μM dexamethasone (MDI), and 1 μg/mL insulin, and then differentiated into mature adipocytes by being further cultured in a medium 1 μg/mL insulin. After that, they were further cultured for 10 days while changing the DMEM culture liquid every other day to obtain fully differentiated adipocytes.
The culture liquid was treated with 13 new compounds with different concentrations every other day from day 0 when DMI was added to the 3T3-L1 cells for differentiation. Derivative compounds were dissolved in DMSO before the use thereof, and a negative control group added with only DMSO was included in the experiment.
After the culturing for a total of 14 days, the culture liquids were removed when the cells were fully differentiated, and fat spheres contained in the differentiated adipocytes were stained. For this, the cells were washed 2 times with phosphate buffered saline (PBS), immobilized in 10% buffered neutral formalin for 1 hour, washed again once with PBS, stained for 1 hour by adding 1 mL of Oil-Red-O, which specifically stains fats red, to the 12-well plate, and then washed 2 times with distilled water. In order to measure the level of triglyceride contained in the differentiated 3T3-L1 cells, the stained cells were dissolved in 1 mL of iso-butanol and the OD value was measured at 600 nm.

C57BL/6J mice [2] = test: Oral glucose tolerance test in mice fed test diets; type: in vivo; conditions: 8 weeks of diet
Procedure: After 8 weeks of experimental diet, the oral glucose tolerance test was performed on all groups. After 6 hours of fasting, the mice were orally administered with glucose (2 g glucose/10 ml of distilled water/kg body weight). Before the oral administration of glucose, at 15, 30, 60, and 120 min after the administration of glucose, blood samples were taken from the tail cut (by removing the distal 1 cm of the tail) and blood glucose concentrations were measured using a blood glucose monitoring device.

C57BL/6J mice [3] = test: Body and visceral fat-pad weights of mice fed high-fat test diets (LJ-2529 study); type: in vivo; conditions: 14 weeks; for decrease of daily food intake: supplemented high-fat diet
Procedure: The obesity-inducing control diet used in the test was high-fat diet (HFD: 40% fat calorie, 17 g lard+3% corn oil/100 g diet). Diets supplemented with LJ-2529 compound or piperine had the same composition as HFD, except that LJ-2529 was included at 0.05%.
5-week-old male C57BL/6J mice (Orient, Korea) were accustomed to the laboratory environment for 1 week while feeding solid feed. […] The diet was given between 10 and 11 a.m. every day together with water. Food intake was measured every day and body weight was measured once a week. In order to avoid transient body weight increase after feed intake, body weight was measured 2 hours after removing the feed. After fasting the test animal for at least 12 hours and anesthetizing with diethyl ether, blood, liver and visceral fat (epididymal fat, perirenal fat, mesenteric fat and retroperitoneal fat) were taken and weighed after washing with 0.1M PBS (pH 7.4). Blood taken from the abdominal aorta was centrifuged at 1000×g for 15 minutes for the separation of plasma.

C57BL/6J mice [4] = test: Body weight and visceral fat weight of mice fed high-fat test diets (LJ-2498 study); type: in vivo; conditions: 0.05% in high-fat diet, 10 weeks
Procedure: The obesity-inducing diet used in this example was high-fat diet (HFD: 40% fat calorie, 17 g lard+3% corn oil/100 g diet). LJ-2498 chemical (JL-2498) or piperine (Pin)-containing diet had the same composition as HFD, except that LJ-2498 chemical was included at 0.05%. As control drugs, metformin (Metf) as a diabetic treatment in a level of 0.1% and sibutramine as an obesity treatment in a level of 0.1% were added to a high-fat diet. A normal diet group (Chow) was fed with commercial rodent feedstuff.
(§1) 5-week-old male C57BL/6J mice (Orient, Korea) were accustomed to the laboratory environment for 1 week while feeding solid feed. Then, they were randomly divided into normal diet group, high-fat diet control group and test group of 3 types and control drug group of 2 types. They were bred for a total of 10 weeks (n=8/group). The diet was given between 10 and 11 a.m. every day together with water. Diet intake was measured every day and body weight was measured every week. In order to avoid transient body weight increase after feed intake, body weight was measured 2 hours after removing the feed. After fasting the test animal for at least 12 hours and anesthetizing with diethyl ether, blood, liver and visceral fat (epididymal fat, perirenal fat, mesenteric fat and retroperitoneal fat) were taken and weighed after washing with 0.1 M PBS (pH 7.4). Blood taken from the abdominal aorta was centrifuged at 1000×g for 15 minutes to separate the serum.

C57BL/6J mice [5] = test: Liver weight and lipid level in liver tissues of mice fed test diets; type: in vivo; conditions: 0.05% in high-fat diet, 10 weeks
Procedure: as §1
Lipids were extracted from the liver tissue according to Folch et al.'s method Folch J et al., J Biol. Chem. 226: 497-509 (1957)). After adding 1 mL of distilled water to 0.25 g of liver tissue, the liver tissue was homogenized using a Polytron homogenizer (IKA-Werke GmbH & Co., Ultra-Turrax, Staufen, Germany). After adding 5 mL of chloroform:methanol solution (2:1, v/v) to the homogenate and mixing well, the mixture was centrifuged at 1000×g for 10 minutes. After adding 2 mL of chloroform:methanol solution (2:1, v/v) again to the supernatant, the same procedure was repeated to completely separate the lipid components of the liver. After adding 3 mL of chloroform:methanl:0.05% CaCl2 (3:48:47, v/v/v) solution to the remaining pellets and mixing well for 1 minute, followed by centrifugation at 1000×g for 10 minutes, the resulting pellets were completely dried with nitrogen gas. The dried lipids were dissolved in 1 mL of methanol and then analyzed.
The same kit (Bio Clinical System) as that used for the plasma analysis was used to measure the triglyceride and cholesterol levels of the liver tissue.

C57BL/6J mice [6] = test: Biochemical analysis of blood (plasma lipids, ALT, AST) of mice fed test diets; type: in vivo; conditions: 0.05% in high-fat diet, 10 weeks
Procedure: as §1
After 10 weeks of breeding, total cholesterol, triglyceride and glucose levels in the plasma and lipid levels in the liver tissue were measured as follows. Total cholesterol, triglyceride, free fatty acid and glucose levels in the plasma were measured twice for each using a commercially available kit (Bio Clinical System). The activity of ALT (alanine aminotransferase) and AST (aspartate aminotransferase) used as liver function indicator were measured twice for each using a commercially available kit (Bio Clinical System, Korea).

COc1ccc(/C=C/C=C/C(=O)N2CCCCC2)cc1OC [LJ-2491, (2E,4E)-5-(3,4-dimethoxy-phenyl)-1-(piperidin-1-yl) penta-2,4-dien-1-one]
differentiation of the preadipocytes 3T3L1 [1]: reduced the differentiation of the preadipocytes 3T3L1 in a concentration-dependent manner

COc1ccc(OC)c(/C=C/C=C/C(=O)N2CCCCC2)c1 [LJ-2488, (2E,4E)-5-(2,5-dimethoxy-phenyl)-1-(piperidin-1-yl) penta-2,4-dien-1-one]
differentiation of the preadipocytes 3T3L1 [1]: reduced the differentiation of the preadipocytes 3T3L1 in a concentration-dependent manner

COc1ccc(/C=C/C=C/C(=O)N2CCCCC2)c(OC)c1 [LJ-2490, (2E,4E)-5-(2,4-dimethoxy-phenyl)-1-(piperidin-1-yl) penta-2,4-dien-1-one]
differentiation of the preadipocytes 3T3L1 [1]: reduced the differentiation of the preadipocytes 3T3L1 in a concentration-dependent manner

COc1cccc(/C=C/C=C/C(=O)N2CCCCC2)c1OC [LJ-2489, (2E,4E)-5-(2,3-dimethoxy-phenyl)-1-(piperidin-1-yl) penta-2,4-dien-1-one]
reduction of area under the curve (ACU) for blood glucose concentrations as compared with HFD (C57BL/6J mice [2]; 2 g glucose/kg oral): 17% | differentiation of the preadipocytes 3T3L1 [1]: reduced the differentiation of the preadipocytes 3T3L1 in a concentration-dependent manner

S=c1[nH]c2ccc(/N=C/c3c(Br)ccc4c3OCO4)cc2[nH]1 [SKKU-S-02]
differentiation of the preadipocytes 3T3L1 [1]: reduced the differentiation of the preadipocytes 3T3L1 in a concentration-dependent manner

Cc1ccc(C)c(/C=C/C=C/C(=O)N2CCCCC2)c1 [LJ-2497, Trans-(2E,4E)-5-(2,5-dimethylphenyl)-1-(piperidin-1-yl) penta-2,4-dien-1-one]
differentiation of the preadipocytes 3T3L1 [1]: reduced the differentiation of the preadipocytes 3T3L1 in a concentration-dependent manner

CC(=O)OC/C=C/c1ccc2c(c1)OCO2 [LJ-2196, (E)-3-(benzo[d][1,3]dioxo-5-yl)allyl acetate]
differentiation of the preadipocytes 3T3L1 [1]: reduced the differentiation of the preadipocytes 3T3L1 in a concentration-dependent manner

O=c1[nH]c2ccc(/N=C/c3cc4c(cc3Br)OCO4)cc2[nH]1 [LJ-2527]
differentiation of the preadipocytes 3T3L1 [1]: reduced the differentiation of the preadipocytes 3T3L1 in a concentration-dependent manner

COc1cc(/C=C/C=C/C(=O)N2CCCCC2)cc(OC)c1 [LJ-2492, (2E,4E)-5-(3,5-dimethoxy-phenyl)-1-(piperidin-1-yl) penta-2,4-dien-1-one]
differentiation of the preadipocytes 3T3L1 [1]: reduced the differentiation of the preadipocytes 3T3L1 in a concentration-dependent manner

O=C(/C=C/C=C/c1ccc2c(c1)OCO2)N1CCCCC1 [piperine, Piperine]
body weight gain change (signed) versus HFD (C57BL/6J mice [3]; piperine-supplemented high-fat diet): −48% | decrease of daily food intake (C57BL/6J mice [3]): 27%

O=C(/C=C/C=C/c1ccc2c(c1)OCO2)N1CCCC1 [LJ-2487, (2E,4E)-5-(benzo[d][1,3]dioxol-5-yl)-1-(pyrrolidin-1-yl)penta-2,4-dien-1-one]
differentiation of the preadipocytes 3T3L1 [1]: reduced the differentiation of the preadipocytes 3T3L1 in a concentration-dependent manner

C(=N\c1ccccc1)/c1ccc2c(c1)OCO2 [LJ-2477, (E)-N-(benzo[d][1,3]dioxol-5-ylmethylene)aniline]
differentiation of the preadipocytes 3T3L1 [1]: reduced the differentiation of the preadipocytes 3T3L1 in a concentration-dependent manner

Cc1ccc(C)c(/C=C/C=C\C(=O)N2CCCCC2)c1 [LJ-2498, Cis-(2E,4E)-5-(2,5-dimethyl-phenyl)-1-(piperidin-1-yl) penta-2,4-dien-1-one]
insulin resistance improving effect versus control drugs metformin and sibutramine (C57BL/6J mice [2]): more excellent than those of control drugs | blood glucose concentration after oral glucose as compared with HFD (C57BL/6J mice [2]; 2 g glucose/kg, 15, 30, 60, 120 min): further reduced over all the time zones | reduction of fasting blood glucose as compared with HFD (C57BL/6J mice [2]; 6 hours fasting): 20% | epididymal fat weight per body weight as compared to HFD (C57BL/6J mice [4]): significantly lower | lower accumulated body weight gain as compared to HFD (C57BL/6J mice [4]): 23% | lower total visceral fat weight compared to HFD (C57BL/6J mice [4]): 28% | mesenteric fat weight per body weight as compared to HFD (C57BL/6J mice [4]): significantly lower | perirenal fat weight per body weight as compared to HFD (C57BL/6J mice [4]): significantly lower | retroperitoneal fat weight per body weight as compared to HFD (C57BL/6J mice [4]): significantly lower | visceral fat weight as compared to HFD group (C57BL/6J mice [4]): significantly lower | differentiation of the preadipocytes 3T3L1 [1]: reduced the differentiation of the preadipocytes 3T3L1 in a concentration-dependent manner | decrease of liver weight compared to HFD (C57BL/6J mice [5]): 23% | decreased level of cholesterol in liver tissue as compared to HFD (C57BL/6J mice [5]): 41% | decreased level of triglyceride in liver tissue as compared to HFD (C57BL/6J mice [5]): 29% | liver tissue appearance as compared to HFD (C57BL/6J mice [5]; images): darker and smaller liver tissue | decreased plasma activity of ALT as compared to HFD (C57BL/6J mice [6]): 27% | decreased plasma activity of AST as compared to HFD (C57BL/6J mice [6]): 15% | lower plasma level of free fatty acid as compared to HFD (C57BL/6J mice [6]): 25% | lower plasma level of total cholesterol as compared to HFD (C57BL/6J mice [6]): 20% | lower plasma level of triglyceride as compared to HFD (C57BL/6J mice [6]): 21%

O=c1[nH]c2ccc(/N=C/c3c(Br)ccc4c3OCO4)cc2[nH]1 [LJ-2529]
differentiation of the preadipocytes 3T3L1 [1]: reduced the differentiation of the preadipocytes 3T3L1 in a concentration-dependent manner | decrease of FER (feed efficiency ratio) compared with HFD (C57BL/6J mice [3]; 0.05% in high-fat diet): 60% | decrease of body weight gain as compared to HFD (C57BL/6J mice [3]; 0.05% in high-fat diet): 60% | epididymal fat-pad weight as compared to HFD (C57BL/6J mice [3]; 0.05% in high-fat diet): significantly reduced | mesenteric fat-pad weight as compared to HFD (C57BL/6J mice [3]; 0.05% in high-fat diet): significantly reduced | perirenal fat-pad weight as compared to HFD (C57BL/6J mice [3]; 0.05% in high-fat diet): significantly reduced | retroperitoneal fat-pad weight as compared to HFD (C57BL/6J mice [3]; 0.05% in high-fat diet): significantly reduced | reduction of total visceral fat weight versus HFD (C57BL/6J mice [3]; 0.05% in high-fat diet, P<0.001): 15% | decrease of daily food intake (C57BL/6J mice [3]): 24%
